From US20210277102A1, “COMPOSITIONS AND METHODS FOR TREATING A TUMOR SUPPRESSOR DEFICIENT CANCER” (BETH ISRAEL DEACONESS MEDICAL CENTER, INC., priority 2016, published 2021)

Test system: Pten^pc−/−; Pml^pc−/− prostate tumors
Test: In vivo CXCR2 antagonist treatment of Pten^pc−/−; Pml^pc−/− mice (MRI, flow cytometry)
Design: species or system mouse
Conditions: for tumor growth (tumor volume by MRI): Pml^pc−/− mice, 5 mg/kg intraperitoneal daily for 14 days, vs vehicle, 5 mg/kg
Description: Mice were allocated at random to experimental groups and studies were performed in an unblended manner. For treatment with the CXCR2 antagonist, SB225002 (Cayman Chemical #13336) was dissolved in DMSO (10 mg/ml) and diluted in vehicle (0.9% NaCl, 0.3% Tween 80) for in vivo administration. Mice (4 months of age) were treated daily for 10 days by intraperitoneal injection (5 mg/kg) and prostate tumor tissue (anterior lobes) was subjected to Flow Cytometry and histological analysis. For MRI analysis, mice (4 months of age) were treated daily for 21 days (Pten^pc-/-; Zbtb7a^pc-/-), for 14 days (Pten^pc-/-; Trp53^pc-/-) or for 14 days (Pten^pc-/-; Pml^pc-/-) by intraperitoneal injection (5 mg/kg). For depletion of Gr-1+/CD11b+ cells, Ly6G-depletion antibody (1A8, BioXcell) and control Rat IgG2a antibody (BioXcell) were diluted in phosphate-buffered saline (PBS) for in vivo administration. Mice (4 months of age) were treated every other day for 10 days by intraperitoneal injection (200-300 μg/mouse). InVivoMAb anti-mouse Ly6G/Ly6C (Gr-1) antibody, clone RB6-8C5 (BE0075, BioXcell), and control Rat IgG2b antibody (BE0090, BioXcell) were diluted in PBS and Pten^pc-/-; Trp53^pc-/- mice were treated every other day for 14 days by intraperitoneal injection (200 μg/mouse). For neutralization of CXCL5, anti-Mouse CXCL5 antibody (Leinco Technologies) and control Rat IgG2a antibody (BioXcell) were diluted in PBS and injected every other day for 21 days by intraperitoneal injection (20 μg/mouse). Tumor volume quantification was performed by using VivoQuant and Image J software. All mouse prostate MRI imaging analysis was performed at Small Animal Imaging Core at BIDMC and acquired on an […] Model M2 1T tabletop scanner. For Flow Cytometry, spleen and lymph node single cell suspensions were prepared by mashing the tissue in 2% FBS/PBS. […] All staining mixtures were analyzed on a BD LSR II flow cytometer (Becton Dickinson). Resulting profiles were further processed and analyzed using the FlowJo 8.7 software.

Question: For `O=C(Nc1ccc([N+](=O)[O-])cc1O)Nc1ccccc1Br` [SB225002], which “tumor growth (tumor volume by MRI)” value is on record?
Answer: did not show any significant response

Question: What about the “tumor growth (tumor volume by MRI)” value (listed as CXCR2i) of the same molecule?
Answer: did not respond

Question: What about the “intra-tumoral Gr-1+/CD11b+ cells (flow cytometry)” value (Pml^pc−/− prostate tumors after treatment) of the same molecule?
Answer: decrease of Gr-1+/CD11b+ cells
